The source of these data is ChEMBL document CHEMBL1681747, “Novel second generation analogs of eribulin. Part II: Orally available and active against resistant tumors in vivo” (Bioorg Med Chem Lett, 2011).

By half-life is commonly meant the time in which the quantity being followed falls by half. Low values mean fast loss, high ones slow loss. By bioavailability is commonly meant the share of a dose that reaches the circulation, judged against a reference dose that is usually intravenous. High values mean good availability, low ones poor availability. One may read the clearance as the volume of plasma or blood freed of the substance per unit of time. Higher therefore signals a high capacity for elimination. Usually AUC(0-inf) stands for the area under the concentration-time curve extrapolated to infinity. A low value points to less exposure. What is called Tmax is the time at which the peak concentration occurs.

SMILES strings stand for the structures.

Holding throughout (format): ADME, organism-based
A short description of data set [1]: Half life in BALB/c mouse at 10 mg/kg. On the set-up: dose 10 mg/kg. The following applies: in vivo.
Data set [2] is described as follows: Volume of distribution at steady state in BALB/c mouse at 10 mg/kg, iv. The following applies: in vivo, read-out: Vdss. Also noted: dose 10 mg/kg, route intravenous.
Data set [3] in a line: Oral bioavailability in BALB/c mouse at 10 mg/kg. Particulars: in vivo.
Data set [4] is described as follows: Clearance in BALB/c mouse at 10 mg/kg, iv. On the set-up: dose 10 mg/kg, route intravenous. Particulars: in vivo.
A short description of data set [5]: AUC (0 to infinity) in BALB/c mouse at 10 mg/kg. Also noted: time infinity, dose 10 mg/kg. Particulars: plasma.
Data set [6] in a line: Tmax in BALB/c mouse at 10 mg/kg. Also noted: dose 10 mg/kg. The following applies: in vivo.

Compound `C=C1C[C@@H]2CC[C@@]34C[C@H]5O[C@H]6[C@@H](O3)[C@H]3O[C@H](CC[C@@H]3O[C@H]6[C@H]5O4)CC(=O)C[C@@H]3[C@@H](OC)[C@@H](C[C@H](O)CN)O[C@H]3C[C@H]3O[C@@H](CC[C@@H]1O2)C[C@@H](C)C3=C` [ERIBULIN] gave a half-life in data set [1] of 15.4 h. Also, the Vd in data set [2] came out at 4.95 L/kg. Moreover, the bioavailability in data set [3] worked out at 3.2%. Further, the clearance in data set [4] was 19.8 mL/min/kg. Also, the AUC(0-inf) in data set [5] is 161 ng·h/mL. Also, the Tmax in data set [6] is 5 min.
